Source: patent US6355428B1, “Nucleic acid ligand interaction assays” (Genelabs Technologies, Inc., priority 1998, dated 2002)

System: F/Q indicator duplex of SEQ ID NO: 75 and SEQ ID NO: 76
Assay: Kinetic strand displacement assay (fluorescence quenching)
Type: binding
Text: This version of the assay is based on the displacement of a shorter strand within an indicator duplex by a longer strand. […] Again, a duplex of first and second sequences, as described above, is used, but in this assay, the strands differ in length, thus creating a single stranded overhang region. In a fluorescence quenching assay format, for example, the “F” strand is generally longer than the “Q” strand. In most cases, a minimum overhang region of about 4-20 nucleotides is effective to initiate strand displacement. Because a longer region will increase the rate of displacement, and it is generally desirable in the assay to reduce the rate of displacement, so as to facilitate measurement, this length of 4-20 nucleotides is generally preferred. A length of 5-7 nucleotides is particularly preferred.
The first and second strands are allowed to form a duplex in the absence of the ligand. In the present example, the “F” and “Q” groups are thus in proximity, giving a minimum level (when Q is a quenching group) of fluorescence. The displacing strand is added, and the rate of displacement, as indicated by an increase (or other change) in fluorescence over time, is observed (see FIG. 2). The experiment is then repeated in the presence of increasing amounts of ligand. A strongly binding ligand will stabilize the initial duplex and thus slow the rate of displacement. It is also expected that a ligand binding closer to the overhang site will also have a greater effect on inhibiting displacement.
The displacing strand, having SEQ ID NO: 77 (Table VI), is added, and the increase in fluorescence is observed over time. […] About 0.08 μM drug was effective to detectably slow the rate of displacement, and at 1.25-2.5 μM, the increase at 2 hrs was reduced to about 40%.
A mixture was formed of 60 nM of a fluorescein labeled 28-nucleotide strand having SEQ ID NO: 75 (Table VI) and 90 nM of a Dabcyl™-labeled 21-nucleotide quenching strand (SEQ ID NO: 76) in a buffer containing 20 mM HEPES, pH 7.5, 0.1 mM EDTA, and 30 mM NaCl. The control experiment contained no added drug; for subsequent experiment, increasing amounts of netropsin were added. To start the displacement reaction, the displacing strand (SEQ ID NO: 77) was added at concentrations of 35 nM to 60 nM. The fluorescence of the system was then monitored every 5 minutes for 90 to 120 minutes.
The initial rate of the displacement reaction was calculated from plots of fluorescence vs. time as the slope of the fluorescence curve from 0 to 60 minutes.
Additional experiments were carried out in which specific, unlabeled DNA competitor duplexes, whose sequences are shown in Table VII, were added to the assay mixture.

## Cn1cc(NC(=O)c2cc(NC(=O)CN=C(N)N)cn2C)cc1C(=O)NCCC(=N)N [Netropsin, netropsin]
A/T rich competitor duplex SEQ ID NO: 78
  effect of unlabeled competitor duplex on rate of displacement in presence of drug (FIG. 16): rate of displacement is increased by increasing amounts of the A/T rich competitor duplex
At 1.25-2.5 μM netropsin, about 175% in absence of drug
  increase in fluorescence at 2 hrs: about 40%
Displacing strand SEQ ID NO: 77
  drug concentration effective to detectably slow the rate of displacement (FIG. 14): About 0.08 μM
Initial rate = slope 0 to 60 minutes
  drug concentration giving notable decrease in initial rate of displacement (FIG. 15): about 0.08 μM
